According to ChEMBL document CHEMBL1201862, “PubChem BioAssay data set” (2004):
Activity calls are given as the source filed them.

Key:
[1] = biological target: 26S proteasome non-ATPase regulatory subunit 14 (Homo sapiens, UniProt O00487); test: inhibition of proteasome subunit RPN11 – biochemical, fluorescence polarization, uHTS hits, confirmation (AID 602368); format: functional
[2] = biological target: 72 kDa type IV collagenase (Homo sapiens, UniProt P08253); test: Dose Response validation of uHTS RPN11 inhibitor hits using a MMP-2 Fluorescence assay.; format: functional
[3] = biological target: X-box-binding protein 1 (Homo sapiens, UniProt P17861); format: functional, Cricetulus griseus;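 also: confirmatory dose-response counter-screen serving a CHOP assay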
[4] = biological target: Prothrombin (Bos taurus, UniProt P00735); test: thrombin inhibition, dose response, biochemical, fluorescence polarization, uHTS hits (AID 602369); format: functional
[5] = biological target: T1, ORF 73 (Human herpesvirus 8, UniProt O40947); test: inhibitors of C-LANA binding to LBS DNA, dose response, biochemical, fluorescence polarization, cherry-picked samples (AID 504725); design: species or system Human gammaherpesvirus 8;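 also: fluorescence polarization of a labeled DNA duplex reporting LANA DNA binding; potency is for inhibitors that block LANA binding to the DNA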
T1 sequence (O40947 whole entry): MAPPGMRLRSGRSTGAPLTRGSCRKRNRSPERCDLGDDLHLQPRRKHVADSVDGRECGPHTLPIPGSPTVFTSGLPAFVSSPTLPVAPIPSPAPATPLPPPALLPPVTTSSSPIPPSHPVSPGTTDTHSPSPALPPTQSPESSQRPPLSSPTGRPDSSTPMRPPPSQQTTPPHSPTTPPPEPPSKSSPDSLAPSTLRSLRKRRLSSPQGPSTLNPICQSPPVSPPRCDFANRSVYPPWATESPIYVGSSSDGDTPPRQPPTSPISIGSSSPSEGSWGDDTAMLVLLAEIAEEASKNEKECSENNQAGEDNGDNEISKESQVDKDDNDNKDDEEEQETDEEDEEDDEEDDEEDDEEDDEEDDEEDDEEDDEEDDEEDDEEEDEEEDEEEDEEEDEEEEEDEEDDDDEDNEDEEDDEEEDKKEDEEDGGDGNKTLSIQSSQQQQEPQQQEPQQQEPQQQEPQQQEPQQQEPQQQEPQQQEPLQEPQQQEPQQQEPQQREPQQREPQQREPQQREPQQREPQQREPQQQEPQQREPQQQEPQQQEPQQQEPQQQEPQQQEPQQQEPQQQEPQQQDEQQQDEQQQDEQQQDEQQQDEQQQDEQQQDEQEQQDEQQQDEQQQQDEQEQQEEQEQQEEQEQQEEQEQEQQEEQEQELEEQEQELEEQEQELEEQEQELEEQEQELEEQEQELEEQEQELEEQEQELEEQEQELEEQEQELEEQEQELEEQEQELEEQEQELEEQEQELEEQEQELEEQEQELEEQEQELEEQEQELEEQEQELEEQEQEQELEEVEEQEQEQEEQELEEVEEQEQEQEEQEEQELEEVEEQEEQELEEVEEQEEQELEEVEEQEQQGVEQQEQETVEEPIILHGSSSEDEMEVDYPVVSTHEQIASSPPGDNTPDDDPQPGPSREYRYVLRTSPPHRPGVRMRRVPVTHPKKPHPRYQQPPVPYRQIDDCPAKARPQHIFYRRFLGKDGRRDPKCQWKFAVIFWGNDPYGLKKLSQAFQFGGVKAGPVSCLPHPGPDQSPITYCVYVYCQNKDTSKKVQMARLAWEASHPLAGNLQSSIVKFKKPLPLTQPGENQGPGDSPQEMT

[6] = tested on: Salmon testes DNA; test: DNA intercalators displacing acridine orange, dose response, artefact control for KSHV LANA DNA-binding inhibitor project, biochemical, fluorescence polarization, cherry-picked samples, set 2 (AID 504727); design: species or system Salmonidae
[7] = biological target: Keap1/Nrf2 (Homo sapiens, UniProt Q14145); test: Keap1-Nrf2 protein-protein interaction inhibitors, dose response, biochemical, fluorescence polarization, cherry-picked samples (AID 588683)
[8] = biological target: T2, Corticotropin-releasing factor receptor 2/Corticotropin-releasing factor-binding protein (Homo sapiens, UniProt P24387+Q13324); test: activators of CRF receptor 2 with binding protein – uHTS hits, confirmation (AID 602473); format: functional; settings: read-out: EC50_Mean
T2 sequence (Q13324 whole entry): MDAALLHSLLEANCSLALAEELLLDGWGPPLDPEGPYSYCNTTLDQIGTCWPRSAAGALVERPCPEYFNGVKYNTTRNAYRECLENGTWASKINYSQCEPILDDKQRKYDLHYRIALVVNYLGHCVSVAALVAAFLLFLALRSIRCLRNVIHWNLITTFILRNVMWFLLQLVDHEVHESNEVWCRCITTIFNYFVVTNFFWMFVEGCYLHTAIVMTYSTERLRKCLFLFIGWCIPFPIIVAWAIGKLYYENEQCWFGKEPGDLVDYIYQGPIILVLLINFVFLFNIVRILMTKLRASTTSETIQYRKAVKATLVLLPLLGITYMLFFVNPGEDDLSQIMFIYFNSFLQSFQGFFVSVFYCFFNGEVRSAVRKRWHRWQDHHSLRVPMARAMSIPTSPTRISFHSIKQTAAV
T2 sequence (P24387 whole entry): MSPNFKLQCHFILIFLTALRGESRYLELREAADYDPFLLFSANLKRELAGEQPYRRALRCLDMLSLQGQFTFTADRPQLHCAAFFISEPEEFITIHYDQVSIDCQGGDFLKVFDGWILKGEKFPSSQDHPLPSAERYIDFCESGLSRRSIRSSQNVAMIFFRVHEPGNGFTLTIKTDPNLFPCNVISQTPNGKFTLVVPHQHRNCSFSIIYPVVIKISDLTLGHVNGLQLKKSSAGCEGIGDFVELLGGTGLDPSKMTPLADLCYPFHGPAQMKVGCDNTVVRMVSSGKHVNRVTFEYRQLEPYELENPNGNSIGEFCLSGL

[9] = cells; format: functional, cell-based; settings: PPC-1
[10] = biological target: Cytochrome P450 2C19 (Homo sapiens, UniProt P33261); test: Cytochrome panel assay with activity outcomes. Panel member name: p450-cyp2c19 Compounds with AC50 equal or less than 10 uM are considered active; format: functional; settings: read-out: AC50
[11] = cytotoxicity toward NIH3T3 fibroblasts, dose response, counter-screen, cell-based, ATP luminescence, mouse fibroblasts (AID 2010); format: functional;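 also: cells exposed to compound for about 90 hours before reading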
[12] = growth suppression of beta-catenin-knockout colon cells, dose response, cell-based, HCT116, human colon tumor (AID 1045); format: functional;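 also: HCT116 colon tumor cells with beta catenin knocked out; cells exposed to compound for 60 hours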
[13] = biological target: T3, Phosphomannomutase 2 (Homo sapiens, UniProt O15305); test: Counter screen SAR assay for PMM2 inhibitors via a fluorescence intensity assay. [Related pubchem assays (depositor defined):AID1545, AID1574]
T3 sequence (O15305 whole entry): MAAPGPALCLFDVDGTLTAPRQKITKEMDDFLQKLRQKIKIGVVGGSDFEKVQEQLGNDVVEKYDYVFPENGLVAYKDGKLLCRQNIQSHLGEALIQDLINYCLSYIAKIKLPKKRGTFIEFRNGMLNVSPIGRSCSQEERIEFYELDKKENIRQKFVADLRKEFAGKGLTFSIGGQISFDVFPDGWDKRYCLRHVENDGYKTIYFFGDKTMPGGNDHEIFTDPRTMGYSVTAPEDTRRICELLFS

[14] = tested on: MDA-MB-435; test: cells; format: functional, cell-based; settings: Homo sapiens
[15] = growth suppression of PTEN-null colon cells, dose response, cell-based, HCT116 PTEN knockout (AID 1047); format: functional;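 also: HCT116 colon tumor cells with PTEN knocked out; cells exposed to compound for 60 hours before readout; potency for loss of cell viability measured by luminescence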

26S proteasome non-ATPase regulatory subunit 14, sequence (O00487 whole entry): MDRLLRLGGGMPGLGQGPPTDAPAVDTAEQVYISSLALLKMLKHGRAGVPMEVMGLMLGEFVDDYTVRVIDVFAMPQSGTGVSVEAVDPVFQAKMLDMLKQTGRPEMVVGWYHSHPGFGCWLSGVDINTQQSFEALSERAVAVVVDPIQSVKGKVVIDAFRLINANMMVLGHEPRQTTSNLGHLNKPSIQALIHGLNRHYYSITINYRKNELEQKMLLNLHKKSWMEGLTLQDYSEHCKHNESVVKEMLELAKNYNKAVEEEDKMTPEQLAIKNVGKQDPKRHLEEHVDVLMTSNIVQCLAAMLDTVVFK
72 kDa type IV collagenase, sequence (P08253 whole entry): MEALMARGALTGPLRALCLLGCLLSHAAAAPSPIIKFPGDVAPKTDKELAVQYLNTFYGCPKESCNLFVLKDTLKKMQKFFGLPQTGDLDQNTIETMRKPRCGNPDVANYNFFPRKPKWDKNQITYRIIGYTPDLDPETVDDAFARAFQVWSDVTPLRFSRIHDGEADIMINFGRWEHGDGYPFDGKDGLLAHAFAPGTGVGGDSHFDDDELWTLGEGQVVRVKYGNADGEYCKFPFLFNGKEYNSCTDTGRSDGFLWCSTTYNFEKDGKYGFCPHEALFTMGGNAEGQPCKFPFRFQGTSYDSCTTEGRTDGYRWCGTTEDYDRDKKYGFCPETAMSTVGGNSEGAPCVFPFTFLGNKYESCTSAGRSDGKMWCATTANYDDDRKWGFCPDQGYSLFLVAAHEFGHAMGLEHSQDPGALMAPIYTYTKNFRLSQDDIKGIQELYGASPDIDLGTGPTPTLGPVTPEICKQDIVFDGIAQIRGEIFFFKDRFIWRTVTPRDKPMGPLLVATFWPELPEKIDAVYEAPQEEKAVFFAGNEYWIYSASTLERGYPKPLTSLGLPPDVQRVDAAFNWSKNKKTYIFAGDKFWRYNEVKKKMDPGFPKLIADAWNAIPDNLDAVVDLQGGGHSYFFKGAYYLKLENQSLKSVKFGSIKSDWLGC
Keap1/Nrf2, sequence (Q16236 whole entry): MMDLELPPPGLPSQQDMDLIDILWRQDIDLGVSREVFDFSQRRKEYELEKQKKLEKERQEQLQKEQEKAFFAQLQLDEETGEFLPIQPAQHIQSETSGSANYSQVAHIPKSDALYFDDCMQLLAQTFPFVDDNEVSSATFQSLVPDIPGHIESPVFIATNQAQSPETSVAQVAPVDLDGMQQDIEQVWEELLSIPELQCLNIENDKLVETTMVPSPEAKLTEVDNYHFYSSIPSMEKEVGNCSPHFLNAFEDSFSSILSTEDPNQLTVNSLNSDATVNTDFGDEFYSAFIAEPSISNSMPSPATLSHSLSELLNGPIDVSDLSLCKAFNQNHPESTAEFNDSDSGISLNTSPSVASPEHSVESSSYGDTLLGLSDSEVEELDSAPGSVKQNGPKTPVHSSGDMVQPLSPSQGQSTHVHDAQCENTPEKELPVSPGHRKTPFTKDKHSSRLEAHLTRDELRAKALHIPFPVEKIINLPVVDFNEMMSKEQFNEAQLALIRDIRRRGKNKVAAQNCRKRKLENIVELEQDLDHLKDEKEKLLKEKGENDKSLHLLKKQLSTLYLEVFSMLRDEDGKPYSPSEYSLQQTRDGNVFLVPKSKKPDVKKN
Keap1/Nrf2, sequence (Q14145 whole entry): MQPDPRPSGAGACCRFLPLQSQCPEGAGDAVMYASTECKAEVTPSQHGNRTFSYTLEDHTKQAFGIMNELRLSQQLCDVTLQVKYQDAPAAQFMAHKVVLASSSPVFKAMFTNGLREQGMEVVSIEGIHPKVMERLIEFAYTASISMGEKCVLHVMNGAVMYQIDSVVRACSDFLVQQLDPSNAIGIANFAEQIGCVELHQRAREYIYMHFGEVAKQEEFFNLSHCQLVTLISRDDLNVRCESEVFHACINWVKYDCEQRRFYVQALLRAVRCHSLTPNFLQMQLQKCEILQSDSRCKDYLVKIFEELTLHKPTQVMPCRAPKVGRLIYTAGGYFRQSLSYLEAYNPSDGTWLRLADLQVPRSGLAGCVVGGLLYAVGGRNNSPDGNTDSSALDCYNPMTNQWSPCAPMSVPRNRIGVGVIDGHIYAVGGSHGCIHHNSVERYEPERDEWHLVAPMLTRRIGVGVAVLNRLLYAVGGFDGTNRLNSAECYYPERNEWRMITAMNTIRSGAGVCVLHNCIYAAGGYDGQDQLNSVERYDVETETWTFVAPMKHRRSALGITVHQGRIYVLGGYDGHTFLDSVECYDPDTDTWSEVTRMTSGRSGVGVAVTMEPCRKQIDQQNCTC
X-box-binding protein 1, sequence (P17861 whole entry): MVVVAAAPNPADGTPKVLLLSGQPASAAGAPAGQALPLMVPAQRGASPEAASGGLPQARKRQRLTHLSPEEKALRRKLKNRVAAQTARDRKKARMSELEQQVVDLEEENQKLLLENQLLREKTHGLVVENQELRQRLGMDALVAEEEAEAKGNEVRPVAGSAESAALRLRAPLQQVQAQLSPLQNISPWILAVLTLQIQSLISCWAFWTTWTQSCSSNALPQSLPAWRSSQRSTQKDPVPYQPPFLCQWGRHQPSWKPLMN
Cytochrome P450 2C19, sequence (P33261 whole entry): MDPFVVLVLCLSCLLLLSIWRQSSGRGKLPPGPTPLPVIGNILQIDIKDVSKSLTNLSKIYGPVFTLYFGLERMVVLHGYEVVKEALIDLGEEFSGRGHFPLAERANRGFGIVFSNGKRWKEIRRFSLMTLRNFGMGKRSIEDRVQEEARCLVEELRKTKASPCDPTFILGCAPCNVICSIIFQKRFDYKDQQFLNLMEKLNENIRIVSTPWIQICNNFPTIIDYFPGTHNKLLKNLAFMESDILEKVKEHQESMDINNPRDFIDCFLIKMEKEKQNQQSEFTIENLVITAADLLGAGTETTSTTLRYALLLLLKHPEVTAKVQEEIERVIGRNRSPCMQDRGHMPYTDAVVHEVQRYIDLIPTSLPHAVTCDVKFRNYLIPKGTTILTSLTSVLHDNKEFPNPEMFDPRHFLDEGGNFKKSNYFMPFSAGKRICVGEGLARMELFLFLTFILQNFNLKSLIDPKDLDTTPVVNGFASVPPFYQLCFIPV

Cc1cccc(OCc2nnc(SCc3nc(O)c4ccc(C(F)(F)F)cc4n3)o2)c1
IC50 [1]: 21.5 µM (active)
IC50 [2]: > 100 µM (inactive)
Absolute IC50 (XBP1) [3]: 10 µM
IC50 [4]: 29.7 µM (active)

Cc1ccccc1N1C(=O)c2cccc3c(N(C)CCO)ccc(c23)C1=O
AC50 [5]: 172 µM (active)
AC50 [6]: 68.4 µM (active)
AC50 [7]: > 52 µM (inactive)
EC50 [8]: 5.5 µM (active)

CSc1nc(-c2ccc(C)cc2)nc(C(Cl)Cl)n1
IC50 [9]: > 10 µM (inactive)
AC50 [10]: 0.398 µM (inconclusive)
EC50 [11]: > 60 µM (inconclusive)
EC50 [12]: 0.714 µM (active)
IC50 [13]: > 100 µM (inactive)
IC50 [14]: > 10 µM (inactive)
EC50 [15]: 0.824 µM (active)
